Values of other authors, collected in article PMC2764006 (Journal of molecular biology, 2009).

Settings: single-molecule FRET

persistence length lp: 44 Å
Substance: polyproline
